{
  "source": "patent EP2632470B1",
  "about": "(priority 2010, dated 2012)",
  "note": "Structures can show the parent of a compound that is named as a salt.",
  "data": [
    {"tested_on": "M. furfur 7982", "test": "Fractional Inhibitor Concentration (FIC) test of chelator combined with ZPT", "type": "cell-based", "conditions": "combination with ZPT (from 12.5ppm); chelator from 400ppm or 800ppm; 33°C, 2 days; average of duplicate plates", "source_text": "Fractional Inhibitor Concentration (FIC) is a conventional methodology for evaluating antimicrobial interactions. In an embodiment of the present invention, an FIC is used to determine combinatorial effects of two chemicals on anti-Malassezia activity in a tissue culture setting.\n• 1. Each FIC assay is run in duplicate. • 2. Low levels of M. furfur 7982 cells are inoculated into each well of a 96 well plate. • 3. Chemical #1 (in our assays, this is always ZPT) is titrated (2x concentration reductions) from right to left across each row of the plate, starting at 12.5ppm final concentration and ending at 0ppm. • 4. […] Plates are incubated at 33°C, 60%RH for 2 days with agitation. • 6. Optical densities (OD's) are then determined using a spectrophotometer.\n1. […]. The lowest concentration value of chemical #1, both by itself and with the lowest concentration of chemical #1 which boosts chemical #2's potency, that inhibit growth are determined (see Appendix 1). 4. Likewise, the lowest concentration of chemical #2, both by itself and with the lowest concentration of chemical #2 that boosts chemical #1's potency, that inhibit growth are determined (see Appendix 1). 5. The FIC value for the duplicate plates is determined using the calculations below: FIC = (lowest inhibitory dose of Chemical#1 by itself)/(inhibitory dose of Chemical#1 in a well that also contains Chemical#2also contains Chemical#1) + (lowest inhibitory dose of Chemical#2by itselflowest)/(lowest inhibitory dose of Chemical#2in a well that) [formula] ave FIC VALUE = (FIC value for plate 1+FIC value for plate2); 2 [formula] 6. The average FIC value is then determined, and the combinatorial effect of the two chemicals is classified according to the chart below: […]", "values": [
      {"compound": "1,2-Dimethyl-3-hydroxy-4-pyridone, Zinc salt", "FIC": 0.5},
      {"compound": "CCCCCCCCOc1cccc(=O)n1O", "note": "[HP-101, N-Hydroxy-6-octyloxypyridine-2(1H)one, ethanolamine salt]", "FIC": 0.62},
      {"compound": "O=C1c2cccc3cccc(c23)C(=O)N1O", "note": "[N,N-Naphthaloylhydroxylamine]", "FIC": 0.8},
      {"compound": "Cc1occc(=S)c1O", "note": "[Thiomaltol]", "FIC": 0.8},
      {"compound": "Benzohydroxamic acid, Zinc Salt", "FIC": 0.3},
      {"compound": "Maltol, Zinc salt", "FIC": 0.1},
      {"compound": "N-Hydroxy-6-octyloxypyridine-2(1H)one, zinc salt [HP-100 Zn]", "FIC": 0.7},
      {"compound": "Thiomaltol, Zinc salt", "FIC": 0.5}
    ]},
    {"tested_on": "Malassezia furfur", "test": "Intrinsic anti-Malassezia potency, growth inhibition by optical density", "type": "cell-based", "conditions": "Malassezia furfur, read-out: Intrinsic Anti-Malassezia Potency (IC50, µM)", "experimental": "(§1) To measure the growth inhibition properties of test materials against Malassezia, we carried out the following protocol.\n(§2) Starting cultures are prepared by incubating with shaking at 31°. Cells (5 ml of culture) are collected by centrifugation and suspended in 50 ml fresh mDixon medium. […] The plates are shaken vigorously on a Heidolph Titramax 100 overnight at 31°. To increase the humidity, water-soaked cotton batting is placed over the plates.\n(§3) As a control, the optical density of untreated M. furfur is measured after overnight incubation. As another control, the optical density of the starting culture is measured. The difference between these optical densities represents the amount of growth of M. furfur.", "units": {"IC50": "µM"}, "values": [
      {"compound": "O=C(O)CN(CC(=O)O)[C@@H]1CCCC[C@H]1N(CC(=O)O)CC(=O)O", "note": "(relative stereo) [trans-1,2-Cyclohexylenedinitrilotetraacetic acid]", "IC50": 500},
      {"compound": "CC(C)c1cccc(O)c(=O)c1", "note": "[1-Hydroxy-4-(1-methylethyl)cyclohepta-3,5,7-trien-2-one]", "IC50": 65},
      {"compound": "O=C(O)CN(CCN(CC(=O)O)CC(=O)O)CC(=O)O", "note": "[Ethylenediaminetetraacetic acid (EDTA), Ethylenediaminetetraacetic acid]", "IC50": "> 500"},
      {"compound": "CCC(NCCNC(CC)C(=O)O)C(=O)O", "note": "(stereo not shown) [Ethylenediiminodi-2-butanoic acid]", "IC50": "> 500"},
      {"compound": "N[C@@H](COP(=O)(O)O)C(=O)O", "note": "[L-2-Amino-3-phosphopropanoic acid]", "IC50": "> 500"}
    ]},
    {"tested_on": "Malassezia furfur", "test": "Intrinsic anti-Malassezia potency, growth inhibition by optical density", "type": "cell-based", "conditions": "Malassezia furfur; mDixon medium, overnight at 31°, optical density 600 nm; read-out: Intrinsic Anti-Malassezia Potency (IC50)", "experimental": "as §1, §2, §3", "units": {"IC50": "µM"}, "values": [
      {"compound": "C1CNCCNCCNCCNCCNCCN1", "note": "[1,4,7,10,13,16-Hexaazacyclooctadecane]", "IC50": "> 500"},
      {"compound": "O=C(O)CN1CCCN(CC(=O)O)CCN(CC(=O)O)CCCN(CC(=O)O)CC1", "note": "[1,4,8,11-Tetraazacyclotetradecane-N,N',N\",N'''-tetraacetic acid]", "IC50": "> 500"},
      {"compound": "S=C(N=Nc1ccccc1)NNc1ccccc1", "note": "[1,5-Diphenyl-1,2,4,5-tetraazapent-1-en-3-thione]", "IC50": 62.5},
      {"compound": "c1cnc2c(c1)ccc1cccnc12", "note": "[1,10-Phenanthroline]", "IC50": 166},
      {"compound": "Oc1ccc2ccccc2c1N=Nc1nccs1", "note": "[1-(2-Thiazoylazo)-2-naphthol]", "IC50": 250},
      {"compound": "c1ccc(-c2cccc(-c3ccccn3)n2)nc1", "note": "[2,2':6',2\"-terpyridine]", "IC50": 86},
      {"compound": "Cc1ccc2ccc3ccc(C)nc3c2n1", "note": "[2,9-dimethyl-1,10-phenanthroline]", "IC50": "> 480"},
      {"compound": "NCCc1ccccn1", "note": "[2-(2-aminoethyl)-pyridine]", "IC50": "> 500"},
      {"compound": "Cc1c(O)c(=O)ccn1C", "note": "[3-Hydroxy-1,2-dimethyl-4(1H)-pyridone]", "IC50": 719},
      {"compound": "Oc1ccc(N=Nc2nccs2)c(O)c1", "note": "[4-(2-thiazolylazo)-resorcinol]", "IC50": "> 900"},
      {"compound": "Oc1c(Cl)cc(Cl)c2cccnc12", "note": "[5,7-dichloro-8-hydroxyquinoline]", "IC50": 23.4},
      {"compound": "Oc1c(I)cc(Cl)c2cccnc12", "note": "[5-Chloro-8-hydroxy-7-iodoquinoline]", "IC50": 65.5},
      {"compound": "Oc1cccc2cccnc12", "note": "[8-hydroxyquinoline]", "IC50": 138},
      {"compound": "CCCCCCCCOc1cccc(=O)n1O", "note": "[HP-101, N-Hydroxy-6-octyloxypyridine-2(1H)one, ethanolamine salt]", "IC50": 54.6},
      {"compound": "c1ccc(CN(CCN(Cc2ccccn2)Cc2ccccn2)Cc2ccccn2)nc1", "note": "[N,N,N',N-tetrakis(2-pyridylmethyl) ethylenediamine]", "IC50": 71},
      {"compound": "O=C(O)CN(CCO)CCO", "note": "[N,N-Bis(2-hydroxyethyl)glycine (Bicine), N,N-Bis(2-hydroxyethyl)glycine]", "IC50": "> 500"},
      {"compound": "NCCC(=O)N[C@@H](Cc1c[nH]cn1)C(=O)O", "note": "[beta-Alanyl-L-histidine (L-Carnosine), beta-Alanyl-L-histidine]", "IC50": "> 500"},
      {"compound": "O=c1cc(CO)occ1O", "note": "[kojic acid]", "IC50": 704},
      {"compound": "Cc1occc(=O)c1O", "note": "[maltol]", "IC50": 793}
    ]},
    {"tested_on": "Malassezia furfur", "test": "Intrinsic anti-Malassezia potency, growth inhibition by optical density", "type": "cell-based", "conditions": "comment on Table 1 data", "experimental": "as §1, §2, §3", "values": [
      {"compound": "O=C(O)CN(CCN(CC(=O)O)CC(=O)O)CC(=O)O", "note": "[Ethylenediaminetetraacetic acid (EDTA), Ethylenediaminetetraacetic acid]", "anti-fungal effectiveness (in words)": "not to be effective"}
    ]},
    {"tested_on": "Malassezia furfur", "test": "Intrinsic anti-Malassezia potency, growth inhibition by optical density", "type": "cell-based", "conditions": "mDixon medium, overnight at 31°, optical density 600 nm; read-out: Intrinsic Anti-Malassezia Potency (IC50)", "experimental": "as §1, §2, §3", "units": {"IC50": "µM"}, "values": [
      {"compound": "zinc salt of 1-hydroxy-2-pyridinethione [Zinc Pyrithione]", "IC50": 15}
    ]}
  ]
}
